Experimental data taken from US20190070165A1, “N-HYDROXYISOQUINOLINEDIONE INHIBITORS OF HBV REPLICATION” (Saint Louis University, priority 2016, published 2019).
Read-outs that look alike come from different tables or passages of the source.

Columns and labels:
HSV-1 = HSV-1 replication inhibition assay in Vero cells; assay type: cell-based, herpes simplex virus 1; conditions: read-out: HSV-1 suppression (log10 at 5 μM), class symbol
Experimental: Thirty-seven compounds were counter-screened for efficacy against HSV-1 to evaluate specificity of the inhibitors and to help determine if the efficacy against HBV replication may be due to an unsuspected indirect effect on the cells. Vero cells infected with HSV-1 at an MOI of 0.1 were treated with 5 μM of compound for 24 hours. Inhibition was calculated as log 10 suppression of plaque forming units compared with DMSO vehicle control.
Vero cells were maintained DMEM supplemented with 3% newborn calf serum, 3% bovine growth serum, 2 mM L-glutamine, and P/S. Test compounds were applied to the cells in the presence of 0.05% DMSO. The herpes simplex virus 1 (HSV-1) strain used for screening was a de-identified clinical isolate from the Saint Louis University Hospital passaged once in culture.
Compounds and virus were diluted in phosphate buffered saline (PBS) containing 2% newborn calf serum and 2 mM L-glutamine so that the final concentration of compound was 5 μM. The cells were incubated at 37° C. for 1 hour with the virus containing inoculum, then the inoculum was removed and the wells were washed once in PBS. Compound diluted to 5 μM in supplemented DMEM was added and cells were incubated at 37° C. for an additional 23 hours. The plates were then microscopically inspected for cytopathic effect (CPE) or toxicity and then frozen at −80° C. Virus titers for wells with limited CPE compared to DMSO vehicle-treated controls were then determined by plaque assay on Vero cells. Each experiment was repeated at least once.

HBV RNaseH [1] = biological target: T1, HBV RNaseH (Hepatitis B virus genotype D subtype ayw, UniProt P03156); conditions: for HBV RNaseH: Table 1, qualitative inhibition in biochemical assay; for Inhibition of HBV RNaseH, Oligonucleotide directed cleavage assay: Table 3, compounds at 100, 60 and 20 μM, compounds 1-91 and 138-140 previously reported (Cai et al., 2014)
T1 sequence (P03156 671-832): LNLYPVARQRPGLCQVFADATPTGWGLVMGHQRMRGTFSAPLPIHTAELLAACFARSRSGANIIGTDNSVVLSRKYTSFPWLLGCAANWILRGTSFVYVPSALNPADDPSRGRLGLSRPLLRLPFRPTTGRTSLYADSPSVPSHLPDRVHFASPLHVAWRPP
Experimental: RNaseH expression and purification. […] The enriched extracts were dialyzed into 50 mM HEPES pH 7.3, 300 mM NaCl, 20% glycerol, and 5 mM DTT and stored in liquid nitrogen.
Oligonucleotide-directed RNA cleavage assay. […] This mixture was incubated with test compounds in 50 mM Tris pH 8.0, 190 mM NaCl, 5 mM MgCl2, 3.5 mM DTT, 0.05% NP40, 6% glycerol, and 1% DMSO at 42° C. for 90 minutes. Cleavage products were resolved by denaturing polyacrylamide gel electrophoresis, detected by autoradiography, and quantified using ImageJ. Non-specific background values were determined from the incorrect oligonucleotide negative control lane and subtracted from all experimental values. IC50 values were then calculated with GraphPad Prism using three-parameter log(inhibitor) vs. response non-linear curve fitting with the curve minimum set to zero to reflect background subtraction.
The HBV RNaseH inhibition activity of the 16 previously untested compounds was examined using an oligonucleotide-directed cleavage assay. Compounds were incubated with the HBV RNaseH, a ^32P-labeled RNA substrate plus a complementary DNA oligonucleotide and compounds at 100, 60, and 20 μM and the amount of the RNA cleavage products was measured following resolution on an acrylamide gel.
Briefly, a ^32P-labeled RNA was combined with a DNA oligonucleotide and the RNA:DNA substrate was incubated in the presence of the RNaseH and test compounds in 50 mM tris pH 8.0, 190 mM NaCl, 5 mM MgCl2, 3.5 mM DTT, 0.05% NP40, 6% glycerol, and 1% DMSO at 42° C. for 90 minutes. The products were resolved by gel electrophoresis and detected by audioradioagraphy.

human RNaseH1 = biological target: T2, human RNaseH1 (Homo sapiens, UniProt O60930); test: Oligonucleotide-directed RNA cleavage assay, human RNaseH1; assay type: biochemical; conditions: for IC50: Table 1, quantitative values
T2 construct: made in house; host or cells: E. coli
T2 sequence (O60930 1-286): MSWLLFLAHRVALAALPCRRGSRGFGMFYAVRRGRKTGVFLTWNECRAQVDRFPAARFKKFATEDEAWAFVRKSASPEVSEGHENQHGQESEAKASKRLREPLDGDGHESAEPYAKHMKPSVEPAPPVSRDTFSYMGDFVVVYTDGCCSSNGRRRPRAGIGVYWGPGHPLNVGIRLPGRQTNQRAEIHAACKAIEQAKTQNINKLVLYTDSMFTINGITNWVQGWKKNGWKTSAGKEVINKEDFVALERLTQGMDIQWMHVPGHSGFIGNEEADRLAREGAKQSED
Description: RNaseH expression and purification.
Oligonucleotide-directed RNA cleavage assay.

HBV replication = HBV replication inhibition assay in HepDES19 cells (strand-preferential q-PCR); assay type: cell-based, Hepatitis B virus; conditions: for EC50: Hepatitis B virus
Experimental: HBV replication assay. […] Cells were seeded into 6-well plates and incubated in DMEM/F12, 10% fetal bovine serum (FBS), 1% penicillin/streptomycin (P/S) with 1 μg/mL tetracycline. Tetracycline was withdrawn after 24 hours. The test compound was applied to duplicate wells 48 hours later in medium containing a final DMSO concentration of 1%, and medium containing the compound was refreshed daily for the following two days. Cells were harvested and non-encapsidated nucleic acids were digested with micrococcal nuclease (New England Biolabs). HBV DNA was purified from capsids using QIAamp Cador Pathogen Mini Kit (Qiagen) with proteinase K incubation overnight at 37° C. TaqMan PCR was performed for 40 cycles at an annealing temperature of 60° C.
Thirty-nine HID, HPD, flutimide, and related POH compounds (Structures shown in FIG. 3) were screened for their ability to inhibit HBV replication in HepDES19 cells. […] Inhibition was calculated as the amount of plus-polarity DNA relative to the DMSO treated controls.
Briefly, HepDES19 were seeded in 12-well plates at 2×10^5 cells per well in the absence of tetracycline. Test compound was applied to cells 48 hours after removal of tetracycline. […] HBV DNA was purified from capsids using a QIAamp pathogen minikit with proteinase K digestion extended to overnight at 37° C. TaqMan PCR was performed for 40 cycles with an annealing temperature of 60° C.

HBV RNaseH [2] = biological target: T1, HBV RNaseH; test: Molecular beacon RNaseH assay; conditions: for inhibition in the molecular beacon assay: 2.1 μg purified HBV RNaseH; for Inhibition of HBV RNaseH, Molecular Beacon cleavage assay: Table 3, 0 to 500 μM
Experimental: In this assay, a hairpin DNA oligonucleotide labeled with fluorescein on one end and a quencher on the other is held in a linear conformation by annealing to a complementary RNA; cleavage of the RNA causes the DNA to fold into a hairpin, suppressing fluorescence (FIG. 8A).
The substrate is a hairpin DNA oligonucleotide with a 5′ fluorescein reporter and a 3′ black hole quencher annealed to a complementary RNA oligonucleotide. The reaction was initiated by adding 5 mM Mg^++, and fluorescence was monitored at 37° C. with a Synergy 4 96-well plate reader. Inhibition was qualitatively determined as a dose-dependent reduction in the rate of substrate degradation.

MTT cytotoxicity assay = assay type: cell-based; conditions: human; Table 2, HepDES19 cells
Experimental: MTT cytotoxicity assays. 1.0×10^4 HepDES19 cells per well were seeded in 96-well plates and incubated in DMEM with 10% FBS plus 1% P/S, 1% non-essential amino acids, and 1% glutamine. Compounds were diluted in medium to the indicated concentrations plus 1% DMSO and added to cells 24 hours after plating, with each concentration tested in triplicate. Medium containing the compound was refreshed daily for the next two days. Thiazolyl blue tetrazolium bromide (MTT, Sigma-Aldrich) was added to 0.25 mg/mL, the cultures were incubated for 60 minutes, metabolites were solubilized in acidic isopropanol, and absorbance was read at 570 nm.

HBV polymerase = biological target: T3, HBV polymerase (Hepatitis B virus genotype D subtype ayw, UniProt P03156); test: Endogenous polymerase reaction (EPR) in isolated HBV capsids; assay type: biochemical; conditions: ddTTP 5.7 μM; for effect on 32P incorporation in EPR: inhibitors at 4× EC50, #138 and #211 at 30 μM
T3 construct: expressed in transfected cells; host or cells: HepDES19 (HepG2 with a stably transfected HBV genotype D genome)
T3 sequence (P03156 whole entry): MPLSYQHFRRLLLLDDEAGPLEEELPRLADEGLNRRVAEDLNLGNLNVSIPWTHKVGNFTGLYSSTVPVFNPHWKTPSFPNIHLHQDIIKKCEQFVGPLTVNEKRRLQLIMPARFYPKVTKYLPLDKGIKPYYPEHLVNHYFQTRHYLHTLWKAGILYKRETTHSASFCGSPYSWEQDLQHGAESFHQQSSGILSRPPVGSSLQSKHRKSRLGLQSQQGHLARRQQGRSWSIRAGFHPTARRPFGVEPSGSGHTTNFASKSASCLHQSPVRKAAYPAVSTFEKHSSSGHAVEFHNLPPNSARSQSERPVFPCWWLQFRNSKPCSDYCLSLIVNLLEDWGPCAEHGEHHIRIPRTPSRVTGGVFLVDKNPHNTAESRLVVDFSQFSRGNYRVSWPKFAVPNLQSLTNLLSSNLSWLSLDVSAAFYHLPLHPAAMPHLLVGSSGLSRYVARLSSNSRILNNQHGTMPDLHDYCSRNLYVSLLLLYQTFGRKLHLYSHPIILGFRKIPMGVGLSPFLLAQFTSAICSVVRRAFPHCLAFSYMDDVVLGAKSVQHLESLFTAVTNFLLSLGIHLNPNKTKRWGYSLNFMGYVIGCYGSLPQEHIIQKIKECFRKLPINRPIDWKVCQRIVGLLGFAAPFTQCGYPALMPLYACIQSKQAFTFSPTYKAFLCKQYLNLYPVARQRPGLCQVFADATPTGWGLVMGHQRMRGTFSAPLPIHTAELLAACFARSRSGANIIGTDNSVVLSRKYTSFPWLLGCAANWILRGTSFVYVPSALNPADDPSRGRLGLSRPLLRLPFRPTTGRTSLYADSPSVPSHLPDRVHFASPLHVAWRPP
Description: Anti-RNaseH activity is implied from their preferential suppression of the plus-polarity DNA strand (FIG. 4), but strand-preferential inhibition could also result from inhibiting the polymerase also. This is because positive-polarity DNA synthesis can be suppressed both directly by inhibiting the RNaseH enzyme and indirectly by reducing the amount of negative-polarity DNA strand that templates the positive-polarity strand, whereas minus-polarity DNA synthesis can only be suppressed by chain termination. To determine if the efficacy of these compounds was due to inhibition of the HBV polymerase, capsids isolated from HepDES19 cells were tested in the endogenous polymerase reaction (EPR) to measure DNA chain elongation by the HBV polymerase along the HBV nucleic acids within the capsids. Isolated HBV capsids were supplied with dATP, dTTP, dGTP, and [α^32P]dCTP in the presence of inhibitors at 4× their EC50 values; negative control compounds #138 and #211 were tested at 30 μM. 1% DMSO was used as a vehicle control, and ddTTP (5.7 μM) was the positive control polymerase inhibitor. Samples were incubated at 37° C. for 7 hours to permit DNA chain elongation by the encapsidated HBV polymerase. Nucleic acids were purified, resolved on a 0.8% agarose gel and detected by autoradiography. DNAs from HBV capsids treated with the compounds incorporated ^32P similarly to DMSO control (FIG. 5).
HBV cores were harvested from HepDES19 cells grown in the absence of tetracycline for 20 days using polyethylene glycol 8000 precipitation (Guo et al., 2003). Cells were rinsed in PBS and lysed in 1 mL core lysis buffer with 2 μL of protease inhibitor cocktail (Sigma) at room temperature for 10 minutes. Cell lysates were collected and 10 mM CaCl2) was added. The lysate was centrifuged for 5 minutes at 21,000 g, the supernatant was incubated with 150 U of micrococcal nuclease at 37° C. for 60 minutes, and then 27 mM EDTA was added to stop the reaction. 333 μL of 26% PEG8000 was added to precipitate core particles and incubated at 4° C. for 6 hours. The samples were centrifuged at 21,000 g for 20 minutes at 4° C. The supernatant was removed and the pellet was resuspended in 250 μL of 10 mM Tris buffer pH 7.5. Cores were stored at −80° C.
The endogenous polymerase reaction was done using a modified procedure from (Nguyen et al., 2007). […] These nucleic acids were dissolved in tris-EDTA buffer, resolved on a 0.8% agarose gel, transferred to a HyBondN membrane, and detected by autoradiography. Band intensities for each experiment were quantified using Image J and percent inhibition was calculated relative to the DMSO-treated reactions. Statistical significance of variation in band intensities was evaluated using a one-way ANOVA with a Dunnett post hoc analysis, with p=0.05 indicating significance.

[3] = Human alphaherpesvirus 1, 24 h, 5 μM, Vero cells
[4] = HepDES19, read-out: HBV replication inhibition (EC50, μm)
[5] = Table 2, HepDES19 cells, read-out: EC50

SMILES | log reduction at 5 µM (HSV-1; [3]) | HBV RNaseH (HBV RNaseH [1]) | Inhibition of HBV RNaseH, Oligonucleotide directed cleavage assay (HBV RNaseH [1]) | inhibition of RNA cleavage by HBV RNaseH (HBV RNaseH [1]; compounds at 100, 60 and 20 μM) | IC50 (human RNaseH1) | EC50 (HBV replication; [4]) | inhibition in the molecular beacon assay (HBV RNaseH [2]) | Inhibition of HBV RNaseH, Molecular Beacon cleavage assay (HBV RNaseH [2]) | CC50 (MTT cytotoxicity assay) | log reduction at 5 µM (HSV-1; Human alphaherpesvirus 1, Vero, 24 h) | EC50 (HBV replication; [5]) | Human RNaseH1 (human RNaseH1; Table 1, qualitative inhibition) | effect on 32P incorporation in EPR (HBV polymerase) | HBV replication inhibition / activity (HBV replication; HepDES19 cells) | HBV replication inhibition (qualitative) (HBV replication; Table 3, qualitative screen at 20 μM) | reduction of DNA elongation in EPR (HBV polymerase; 7 hours, 37° C.)
CCN(CC)C(=O)C1C(=O)N(O)C(=O)c2ccccc21 (stereo not drawn) [Compound 83] | < 1 | +/− | − (No inhibition detected at 100 μM) | negative | 3.4 µM | 2.3 ± 1.6 µM | inhibited | + (Dose-dependent inhibition at ≤500 μM) | > 100 µM | – | – | – | – | – | – | –
O=C(Nc1ccccc1)C1C(=O)N(O)C(=O)c2ccccc21 (stereo not drawn) [Compound 84] | < 1 | +/− | − (No inhibition detected at 100 μM) | – | 3.7 µM | 6.5 ± 4.5 µM | – | − (No inhibition detected at 500 μM) | – | – | – | – | – | – | – | –
O=C(NCc1ccccc1)C1C(=O)N(O)C(=O)c2ccccc21 (stereo not drawn) [Compound 85] | – | +/− | − (No inhibition detected at 100 μM) | – | 3.9 µM | 6.5 ± 1.5 µM | – | − (No inhibition detected at 500 μM) | – | < 1 | 6.5 µM | – | – | – | – | –
COc1ccc(CNC(=O)C2C(=O)N(O)C(=O)c3ccccc32)cc1 (stereo not drawn) [Compound 90] | < 1 | – | − (No inhibition detected at 100 μM) | – | – | 19 ± 0.9 µM | – | − (No inhibition detected at 500 μM) | – | – | 18 µM | ++ (detectable inhibition at 20 μM) | – | – | – | –
O=C(Nc1ccc(F)cc1)C1C(=O)N(O)C(=O)c2ccccc21 (stereo not drawn) [Compound 91] | < 1 | – | − (No inhibition detected at 100 μM) | – | 8.7 µM | 4.6 ± 1 µM | – | − (No inhibition detected at 500 μM) | – | – | – | – | – | – | – | –
CC1CC(=O)N(O)C(COc2ccc(Oc3ccc(Cl)cc3)cc2)C1 (stereo not drawn) [Compound 211, Rilopirox, reference compound] | < 1 | – | − (No inhibition detected at 100 μM) | – | – | – | had no effect on the rate of substrate degradation | − (No inhibition detected at 500 μM) | – | – | – | – | None of the HBV inhibitors or the two negative control compounds (#138 and 211) significantly altered incorporation | inactive | − (No inhibition detected at 20 μM) | –
Cc1cn([C@H]2CC[C@@H](COP(=O)(O)OP(=O)(O)OP(=O)(O)O)O2)c(=O)[nH]c1=O [ddTTP] | – | – | – | – | – | – | – | – | – | – | – | – | strongly inhibited | – | – | ~90%
